Measured values as given in article PMC4138103 (PLoS ONE, 2014).
Read-outs that look alike come from different tables or passages of the source.

Test system: Sprague-Dawley rats
Assay: Clinical chemistry
Format: in vivo, Rattus norvegicus
Set-up: key to Cholesterol, Dose response / Triglyserides, Dose response / Glucose, Dose response / Albumin, Dose response / K, Dose response / Total bilirubin, Dose response: D: significant dose response (for results, see Table 2); T: significant trend
Details: for CED, Glucose / CED, Potassium / CED-L, Glucose / CED-L, Potassium / CED, Alkaline phosphatase / CED, Chlolesterol / CED, Total Bilirubin / CED-L, Alkaline phosphatase / CED-L, Chlolesterol / CED-L, Total Bilirubin / CED, Albumin / CED-L, Albumin / CED, Total protein / CED, Triglycerides / CED-L, Total protein / CED-L, Triglycerides: adipose tissue concentration based; for Emax: Rattus norvegicus
Experimental: Spectrophotometric methods were used for the determination of serum total calcium, cholesterol, creatinine, glucose, triglycerides and urea. Serum sodium, potassium and chloride concentrations were measured directly by ion selective electrodes. The analyses were performed by a clinical chemistry analyzer (Konelab 30i, ThermoFisher Scientific, Vantaa, Finland). Plasma lactate dehydrogenase (LD) activity was measured according to the recommendations of the International Federation of Clinical Chemistry (IFCC 1994/I) using Konelab 60i clinical chemistry analyzer. Methods and results for liver related parameters (serum alanine aminotransferase [ALT] activity, alkaline phosphatase [ALP] activity, albumin, total protein and total bilirubin are reported separately.
Data were also analyzed using the BMD method, which is based on dose-response modeling of the full data set using a nested family of exponential and Hill models. The analyses were done on data of males and females combined, using sex as a covariate. […] In that case, different Critical Effect Doses (CEDs) and CEDs at the lowest bound of the confidence interval (CED-L) were generated for each sex. If no difference between sexes is detected, a CED and CED-Ls for the combined data is generated. However, this was also done if the curve fits are close, and separate analyses for males and females were then performed manually. CEDs and CED-Ls were calculated at the predefined Critical Effect Size (CES) of 5% (EFSA standard) or 10%.

[1] = females, total dose 0-1700 mg/kg bw
[2] = females, total dose 10 mg/kg bw
[3] = females, total dose 30 mg/kg bw
[4] = females, total dose 100 mg/kg bw
[5] = females, total dose 300 mg/kg bw
[6] = females, total dose 1000 mg/kg bw
[7] = females, total dose 1700 mg/kg bw

Compound: Clc1cc(Cl)c(-c2cc(Cl)c(Cl)c(Cl)c2Cl)cc1Cl [PCB 180, 2,2′,3′,4,4′,5,5′-heptachlorobiphenyl]
- CED, Glucose (F, CES 5%, model E2): 4450 µg/g lipid
- CED, Potassium (F, CES 5%, model E2): 7900 µg/g lipid
- CED-L, Glucose (F, CES 5%, model E2): 2648 µg/g lipid
- CED-L, Potassium (F, CES 5%, model E2): 5086 µg/g lipid
- CED, Alkaline phosphatase (F, CES 5%, model E4): 308 µg/g lipid
- CED, Chlolesterol (F, CES 5%, model E4): 640 µg/g lipid
- CED, Total Bilirubin (F, CES 5%, model E4): 19.4 µg/g lipid
- CED-L, Alkaline phosphatase (F, CES 5%, model E4): 136 µg/g lipid
- CED-L, Chlolesterol (F, CES 5%, model E4): 387 µg/g lipid
- CED-L, Total Bilirubin (F, CES 5%, model E4): 3.77 µg/g lipid
- CED, Glucose (F, CES 10%, model E2): 9140 µg/g lipid
- CED, Potassium (F, CES 10%, model E2): 16200 µg/g lipid
- CED-L, Glucose (F, CES 10%, model E2): 5440 µg/g lipid
- CED-L, Potassium (F, CES 10%, model E2): 10450 µg/g lipid
- CED, Alkaline phosphatase (F, CES 10%, model E4): 701 µg/g lipid
- CED, Chlolesterol (F, CES 10%, model E4): 1330 µg/g lipid
- CED, Total Bilirubin (F, CES 10%, model E4): 48.2 µg/g lipid
- CED-L, Alkaline phosphatase (F, CES 10%, model E4): 309 µg/g lipid
- CED-L, Chlolesterol (F, CES 10%, model E4): 813 µg/g lipid
- CED-L, Total Bilirubin (F, CES 10%, model E4): 8.98 µg/g lipid
- CED, Albumin (M, CES 5%, model E2): 6750 µg/g lipid
- CED, Alkaline phosphatase (M, CES 5%, model E2): 2300 µg/g lipid
- CED, Glucose (M, CES 5%, model E2): 866 µg/g lipid
- CED-L, Albumin (M, CES 5%, model E2): 4696 µg/g lipid
- CED-L, Alkaline phosphatase (M, CES 5%, model E2): 1393 µg/g lipid
- CED-L, Glucose (M, CES 5%, model E2): 632 µg/g lipid
- CED, Chlolesterol (M, CES 5%, model E4): 177 µg/g lipid
- CED, Total protein (M, CES 5%, model E4): 1080 µg/g lipid
- CED, Triglycerides (M, CES 5%, model E4): 12.5 µg/g lipid
- CED-L, Chlolesterol (M, CES 5%, model E4): 91.4 µg/g lipid
- CED-L, Total protein (M, CES 5%, model E4): 575 µg/g lipid
- CED-L, Triglycerides (M, CES 5%, model E4): 7.26 µg/g lipid
- CED, Albumin (M, CES 10%, model E2): 13200 µg/g lipid
- CED, Alkaline phosphatase (M, CES 10%, model E2): 4730 µg/g lipid
- CED, Glucose (M, CES 10%, model E2): 1780 µg/g lipid
- CED-L, Albumin (M, CES 10%, model E2): 9174 µg/g lipid
- CED-L, Alkaline phosphatase (M, CES 10%, model E2): 2861 µg/g lipid
- CED-L, Glucose (M, CES 10%, model E2): 1297 µg/g lipid
- CED, Chlolesterol (M, CES 10%, model E4): 365 µg/g lipid
- CED, Total protein (M, CES 10%, model E4): 2970 µg/g lipid
- CED, Triglycerides (M, CES 10%, model E4): 26.2 µg/g lipid
- CED-L, Chlolesterol (M, CES 10%, model E4): 189 µg/g lipid
- CED-L, Total protein (M, CES 10%, model E4): 1629 µg/g lipid
- CED-L, Triglycerides (M, CES 10%, model E4): 15.2 µg/g lipid
- Emax (F, model E2, controls vs high dose according to the fitted model, read-out: Maximum response, Glucose): -12.2%
- Emax (F, model E2, controls vs high dose according to the fitted model, read-out: Maximum response, Potassium): -7.07%
- Emax (F, model E4, controls vs high dose according to the fitted model, read-out: Maximum response, Alkaline phosphatase): -25.7%
- Emax (F, model E4, controls vs high dose according to the fitted model, read-out: Maximum response, Chlolesterol): 53.8%
- Emax (F, model E4, controls vs high dose according to the fitted model, read-out: Maximum response, Total Bilirubin): -18.2%
- Emax (females, controls vs high dose, fitted model, read-out: Alkaline phosphatase, Maximum response): -25.7%
- Emax (females, controls vs high dose, fitted model, read-out: Chlolesterol, Maximum response): 54.1%
- Emax (females, controls vs high dose, fitted model, read-out: Glucose, Maximum response): -12.1%
- Emax (females, controls vs high dose, fitted model, read-out: Potassium, Maximum response): -7%
- Emax (females, controls vs high dose, fitted model, read-out: Total Bilirubin, Maximum response): -17.9%
- Emax (males, controls vs high dose, fitted model, read-out: Albumin, Maximum response): 5.5%
- Emax (males, controls vs high dose, fitted model, read-out: Alkaline phosphatase, Maximum response): -14.9%
- Emax (males, controls vs high dose, fitted model, read-out: Chlolesterol, Maximum response): 80.8%
- Emax (males, controls vs high dose, fitted model, read-out: Glucose, Maximum response): -35.6%
- Emax (males, controls vs high dose, fitted model, read-out: Total protein, Maximum response): 14.1%
- Emax (males, controls vs high dose, fitted model, read-out: Triglycerides, Maximum response): -62.2%
- Emax (model E2, controls vs high dose according to the fitted model, read-out: Maximum response, Albumin): 5.49%
- Emax (model E2, controls vs high dose according to the fitted model, read-out: Maximum response, Alkaline phosphatase): -15.4%
- Emax (model E2, controls vs high dose according to the fitted model, read-out: Maximum response, Glucose): -35.4%
- Emax (model E4, controls vs high dose according to the fitted model, read-out: Maximum response, Chlolesterol): 81.7%
- Emax (model E4, controls vs high dose according to the fitted model, read-out: Maximum response, Total protein): 14.2%
- Emax (model E4, controls vs high dose according to the fitted model, read-out: Maximum response, Triglycerides): -62.5%
- Cholesterol, Dose response [1]: T
- Glucose, Dose response [1]: T
- K, Dose response [1]: T
- Total bilirubin, Dose response [1]: T
- Albumin (females, total dose 3 mg/kg bw): 33.8 g/L
- Cholesterol (females, total dose 3 mg/kg bw): 3.11 mmol/L
- Cl (females, total dose 3 mg/kg bw): 97.1 mmol/L
- Creatinine (females, total dose 3 mg/kg bw): 51.7 µmol/L
- Glucose (females, total dose 3 mg/kg bw): 13.7 mmol/L
- K (females, total dose 3 mg/kg bw): 5.59 mmol/L
- Na (females, total dose 3 mg/kg bw): 142.1 mmol/L
- Total Ca (females, total dose 3 mg/kg bw): 3.40 mmol/L
- Total bilirubin (females, total dose 3 mg/kg bw): 1.59 µmol/L
- Triglyserides (females, total dose 3 mg/kg bw): 0.91 mmol/L
- Urea (females, total dose 3 mg/kg bw): 9.9 mmol/L
- Albumin [2]: 33.9 g/L
- Cholesterol [2]: 3.35 mmol/L
- Cl [2]: 97.2 mmol/L
- Creatinine [2]: 53.8 µmol/L
- Glucose [2]: 14.4 mmol/L
- K [2]: 5.70 mmol/L
- Na [2]: 143.6 mmol/L
- Total Ca [2]: 3.42 mmol/L
- Total bilirubin [2]: 1.66 µmol/L
- Triglyserides [2]: 0.85 mmol/L
- Urea [2]: 9.4 mmol/L
- Albumin [3]: 32.7 g/L
- Cholesterol [3]: 3.05 mmol/L
- Cl [3]: 97.3 mmol/L
- Creatinine [3]: 48.6 µmol/L
- Glucose [3]: 13.6 mmol/L
- K [3]: 5.55 mmol/L
- Na [3]: 142.7 mmol/L
- Total Ca [3]: 3.46 mmol/L
- Total bilirubin [3]: 1.40 µmol/L
- Triglyserides [3]: 1.19 mmol/L
- Urea [3]: 9.5 mmol/L
- Albumin [4]: 33.1 g/L
- Cholesterol [4]: 3.54 mmol/L
- Cl [4]: 97.0 mmol/L
- Creatinine [4]: 51.3 µmol/L
- Glucose [4]: 13.8 mmol/L
- K [4]: 5.75 mmol/L
- Na [4]: 142.5 mmol/L
- Total Ca [4]: 3.44 mmol/L
- Total bilirubin [4]: 1.56 µmol/L
- Triglyserides [4]: 0.89 mmol/L
- Urea [4]: 8.6 mmol/L
- Albumin [5]: 33.5 g/L
- Cholesterol [5]: 3.52 mmol/L
- Cl [5]: 96.8 mmol/L
- Creatinine [5]: 47.8 µmol/L
- Glucose [5]: 14.0 mmol/L
- K [5]: 5.54 mmol/L
- Na [5]: 142.6 mmol/L
- Total Ca [5]: 3.56 mmol/L
- Total bilirubin [5]: 1.40 µmol/L
- Triglyserides [5]: 1.12 mmol/L
- Urea [5]: 10.1 mmol/L
- Albumin [6]: 33.0 g/L
- Cholesterol [6]: 4.16 mmol/L
- Cl [6]: 97.2 mmol/L
- Creatinine [6]: 51.9 µmol/L
- Glucose [6]: 12.6 mmol/L
- K [6]: 5.43 mmol/L
- Na [6]: 142.7 mmol/L
- Total Ca [6]: 3.40 mmol/L
- Total bilirubin [6]: 1.43 µmol/L
- Triglyserides [6]: 0.89 mmol/L
- Urea [6]: 9.3 mmol/L
- Albumin [7]: 33.3 g/L
- Cholesterol [7]: 4.94 mmol/L
- Cl [7]: 97.7 mmol/L
